Test results from patent publication US20240000721A1, “COMPOSITIONS FOR REDUCTION OF OXIDATIVE STRESS, IMPROVEMENT TO THE IMMUNE SYSTEM, PROMOTION OF HEALTHY CARTILAGE AND/OR ALLEVIATION OF PAIN ACCOMPANYING INFLAMMATORY DISEASES IN RUMINANTS” (DSM IP Assets B.V., priority 2018, published 2024).

Tested on: Brahman steers (Bos indicus)
Test: Rumen metabolites in rumen fluid of fistulated Brahman steers, quantified by NMR
Format: in vivo
Details: for Dimethylsulfone in rumen fluid / Trimethylamine in rumen fluid: rumen fluid 3 h post feeding
From the text: Eight fistulated Brahman steers (Bos indicus) were randomly allocated to two groups (4 animals per group) and received a forage ad libitum diet (Rhode grass hay (Chloris […]), chemical composition: DM, 917 g/kg fresh matter; in g/kg of DM: OM, 806; CP, 169; NDF, 661; ADF, 359; ADL, 46; ash, 116 and GE 17.38 MJ/kg). […] Animals were adapted to the diet over a 21 d period. After that initial period, experimental animals were placed into individual pens in an animal house for the measurement of intakes (10 d) and were treated with cyclodextrin (2 g/100 kg LW) and molasses (60 mL/d). On the last 2 days animals were placed into open-circuit respiration chambers for collection of rumen samples. […] PDMN was provided to the animals mixed with molasses (60 mL/day, molasses were previously diluted in water: 1:4 water:molasses) and mixed with the hay at three different times: 0 h, 3 h and 5 h after the feed was offered. […] On days 20 and 21 of treatment both groups were placed in open-circuit respiration chambers for rumen fluid collection. Rumen fluid samples (approx. 60 mL per animal) were collected using a probe with 2 layers of cheesecloth through the cannula of the animal at 3 h post feeding, during confinement in respiration chambers to determine rumen metabolites.

[1] = 21 days treatment compared with control period

Row | SMILES | Dimethylsulfone in rumen fluid (2.5 g PDMN/animal/day (10% on silicon dioxide) for 21 days, control period 20) [μmol/L rumen fluid] | Trimethylamine in rumen fluid (2.5 g PDMN/animal/day (10% on silicon dioxide) for 21 days, control period 334) [μmol/L rumen fluid] | Effect on dimethylsulfone and trimethylamine in rumen fluid (in words) [1] | Effect on dimethylsulfone and trimethylamine in rumen fluid (in words) (21 days treatment compared with control period, listed as propanediolediol mononitrate) | Dimethylsulfone in rumen fluid (1.6 g chloroform-CD/100 kg LW for 21 days, control period 21) [μmol/L rumen fluid] | Trimethylamine in rumen fluid (1.6 g chloroform-CD/100 kg LW for 21 days, control period 564) [μmol/L rumen fluid] | Effect on the methyl donor dimethylsulfone and triethylamine in rumen fluid (in words) [1]
1 | O=[N+]([O-])OCCCO [PDMN, 1,3-propanediol mononitrate] | 113 | 1242 | statistically significant increase | particularly effective | – | – | –
2 | ClC(Cl)Cl [Chloroform, chloroform, reference compound] | – | – | – | – | 80 | 828 | statistically significant increase
